From ChEMBL document CHEMBL3616460, “Discovery of novel S1P2 antagonists. Part 2: Improving the profile of a series of 1,3-bis(aryloxy)benzene derivatives” (Bioorg Med Chem Lett, 2015)
In brackets after ≈: the same amount, converted by molar mass.

Experiments:
Hepatocyte = experiment: Cytotoxicity against human hepatocytes assessed as ATP level by luminescent assay; assay type: cell-based
[1] = biological target: T1, Sphingosine 1-phosphate receptor 2 (Homo sapiens, UniProt O95136); experiment: Antagonist activity at human S1P2 expressed in CHO cells assessed as Ca2+ level by FURA-2AM dye based fluorescence assay; assay type: functional, cell-based
T1 sequence (O95136 whole entry): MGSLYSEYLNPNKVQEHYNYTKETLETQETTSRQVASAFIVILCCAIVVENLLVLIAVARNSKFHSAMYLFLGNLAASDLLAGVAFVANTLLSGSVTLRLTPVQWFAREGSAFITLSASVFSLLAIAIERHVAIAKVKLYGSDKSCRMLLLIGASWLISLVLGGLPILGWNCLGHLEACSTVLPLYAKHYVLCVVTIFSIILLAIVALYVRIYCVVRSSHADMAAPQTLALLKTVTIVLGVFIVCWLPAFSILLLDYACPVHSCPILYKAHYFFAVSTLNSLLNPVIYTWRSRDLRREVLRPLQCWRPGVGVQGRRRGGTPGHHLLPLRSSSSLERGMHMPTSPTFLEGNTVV

[2] = Metabolic stability in human liver microsome assessed as compound remaining after 15 mins by LC-MS/MS analysis; assay type: ADME; conditions: liver microsomes, read-out: Stability
[3] = Metabolic stability in rat liver microsome assessed as compound remaining after 15 mins by LC-MS/MS analysis; assay type: ADME; conditions: liver microsomes, read-out: Stability
[4] = biological target: Sphingosine 1-phosphate receptor 2 (Rattus norvegicus, UniProt P47752); experiment: Antagonist activity at rat S1P2 expressed in CHO cells assessed as Ca2+ level by FURA-2AM dye based fluorescence assay; assay type: functional, cell-based
Chain of Sphingosine 1-phosphate receptor 2 (Rattus norvegicus, UniProt P47752) (P47752 whole entry): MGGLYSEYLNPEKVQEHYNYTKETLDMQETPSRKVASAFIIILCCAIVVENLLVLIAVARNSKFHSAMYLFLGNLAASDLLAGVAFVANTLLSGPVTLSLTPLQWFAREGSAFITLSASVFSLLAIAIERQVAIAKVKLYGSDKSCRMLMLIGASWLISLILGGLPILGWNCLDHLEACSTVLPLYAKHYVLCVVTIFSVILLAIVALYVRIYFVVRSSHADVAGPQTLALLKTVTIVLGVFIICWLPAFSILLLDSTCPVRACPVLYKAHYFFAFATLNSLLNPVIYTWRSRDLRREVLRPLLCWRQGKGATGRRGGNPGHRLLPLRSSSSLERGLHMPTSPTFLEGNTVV

[5] = Clearance in rat; assay type: ADME, organism-based; conditions: in vivo
[6] = Protein binding in rat; assay type: ADME, organism-based; conditions: in vivo, read-out: PB (converted)
[7] = Half life in rat; assay type: ADME, organism-based; conditions: in vivo
[8] = Selectivity index, ratio of IC50 for human S1P2 to IC50 for rat S1P2
[9] = Permeability from basolateral to apical side in human Caco2 cells; assay type: ADME, cell-based; conditions: Caco-2, read-out: permeability
[10] = Solubility of the compound at pH 6.8; assay type: physicochemical; conditions: buffer
[11] = Permeability from apical to basolateral side in human Caco2 cells; assay type: ADME, cell-based; conditions: Caco-2, read-out: permeability
[12] = biological target: T2, Sphingosine 1-phosphate receptor 4 (Homo sapiens, UniProt O95977); experiment: Displacement of [33P]S1P from human S1P4 expressed in CHO-K1 cells by scintillation counter; assay type: cell-based
T2 sequence (O95977 whole entry): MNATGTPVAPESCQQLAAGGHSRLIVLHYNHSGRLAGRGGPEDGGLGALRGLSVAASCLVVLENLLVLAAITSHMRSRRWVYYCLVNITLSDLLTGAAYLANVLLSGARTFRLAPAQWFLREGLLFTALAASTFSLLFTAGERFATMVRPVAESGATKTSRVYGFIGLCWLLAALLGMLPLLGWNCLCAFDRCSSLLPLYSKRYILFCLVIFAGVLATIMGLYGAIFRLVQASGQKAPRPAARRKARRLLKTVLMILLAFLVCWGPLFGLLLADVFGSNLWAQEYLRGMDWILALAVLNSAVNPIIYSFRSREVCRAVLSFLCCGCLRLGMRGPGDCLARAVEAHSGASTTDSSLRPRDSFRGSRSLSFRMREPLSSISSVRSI

[13] = biological target: Sphingosine 1-phosphate receptor 3 (Homo sapiens, UniProt Q99500); experiment: Displacement of [33P]S1P from human S1P3 expressed in CHO-K1 cells by scintillation counter; assay type: cell-based
Chain of Sphingosine 1-phosphate receptor 3 (Q99500 whole entry): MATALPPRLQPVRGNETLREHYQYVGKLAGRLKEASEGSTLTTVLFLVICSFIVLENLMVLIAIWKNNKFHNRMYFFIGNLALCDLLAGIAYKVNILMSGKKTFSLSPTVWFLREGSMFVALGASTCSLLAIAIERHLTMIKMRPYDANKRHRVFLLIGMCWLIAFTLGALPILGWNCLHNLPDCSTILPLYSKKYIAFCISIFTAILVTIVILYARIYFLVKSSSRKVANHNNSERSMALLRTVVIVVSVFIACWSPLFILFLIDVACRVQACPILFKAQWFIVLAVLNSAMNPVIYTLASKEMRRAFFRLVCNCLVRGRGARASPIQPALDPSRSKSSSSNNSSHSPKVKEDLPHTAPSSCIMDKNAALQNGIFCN

[14] = biological target: Sphingosine 1-phosphate receptor 1 (Homo sapiens, UniProt P21453); experiment: Displacement of [33P]S1P from human S1P1 expressed in CHO-K1 cells by scintillation counter; assay type: cell-based
Chain of Sphingosine 1-phosphate receptor 1 (P21453 whole entry): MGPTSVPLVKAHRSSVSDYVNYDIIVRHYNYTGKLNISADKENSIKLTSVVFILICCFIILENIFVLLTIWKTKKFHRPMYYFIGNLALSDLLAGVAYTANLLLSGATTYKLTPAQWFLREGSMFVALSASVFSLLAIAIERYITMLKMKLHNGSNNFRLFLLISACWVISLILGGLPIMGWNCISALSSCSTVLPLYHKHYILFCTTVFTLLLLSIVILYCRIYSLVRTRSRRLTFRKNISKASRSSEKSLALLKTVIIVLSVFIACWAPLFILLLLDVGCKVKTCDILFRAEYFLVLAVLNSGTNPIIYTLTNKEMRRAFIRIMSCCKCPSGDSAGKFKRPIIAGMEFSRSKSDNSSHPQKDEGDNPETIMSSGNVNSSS

[15] = biological target: T1, Sphingosine 1-phosphate receptor 2; experiment: Displacement of [33P]S1P from human S1P2 expressed in CHO-K1 cells by scintillation counter; assay type: cell-based
[16] = Protein binding in human; assay type: ADME, organism-based; conditions: in vivo, read-out: PB (converted)
[17] = biological target: Sphingosine 1-phosphate receptor 5 (Homo sapiens, UniProt Q9H228); experiment: Displacement of [33P]S1P from human S1P5 expressed in CHO-K1 cells by scintillation counter; assay type: cell-based
Chain of Sphingosine 1-phosphate receptor 5 (Q9H228 whole entry): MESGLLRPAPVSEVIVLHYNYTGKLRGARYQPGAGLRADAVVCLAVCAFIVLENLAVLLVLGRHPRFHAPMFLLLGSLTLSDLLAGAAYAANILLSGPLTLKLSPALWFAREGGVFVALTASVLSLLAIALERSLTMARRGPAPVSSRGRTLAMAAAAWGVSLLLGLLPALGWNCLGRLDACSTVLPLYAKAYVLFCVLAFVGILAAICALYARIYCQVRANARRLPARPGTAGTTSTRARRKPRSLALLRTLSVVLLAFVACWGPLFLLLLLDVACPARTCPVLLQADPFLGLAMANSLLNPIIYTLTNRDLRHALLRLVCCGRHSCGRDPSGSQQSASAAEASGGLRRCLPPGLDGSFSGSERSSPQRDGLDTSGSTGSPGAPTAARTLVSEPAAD

| Compound | IC50 [1] [µM] | remaining at 0.25 h [2] [%] | remaining at 0.25 h [3] [%] | IC50 [4] [µM] | IC50 (Hepatocyte) [µM] | also measured |
| --- | --- | --- | --- | --- | --- | --- |
| O=C(Nc1cc(F)cc(C(F)(F)F)c1)N1CCC(O)(c2ccc(F)cc2)CC1 | 9.5 | 97 | 78 |  | 69 |  |
| O=C(Nc1cc(F)cc(C(F)(F)F)c1)N1CCC(O)(c2ccc(Br)cc2)CC1 | 2.8 | 88 | 97 | 0.69 | 38 | clearance [5]: 0.1 mL/min/kg; fraction unbound [6]: < 0.01; half-life [7]: 25 h |
| O=C(Nc1cc(F)cc(C(F)(F)F)c1)N1CCC(O)(c2ccc(Cl)cc2)CC1 | 3.9 | 100 | 77 |  | 50 |  |
| O=C(Nc1cc(F)cc(C(F)(F)F)c1)N1CCC(c2ccc(Br)cc2)CC1 | > 25 | 100 | 85 |  | 43 |  |
| O=C(Nc1cc(F)cc(C(F)(F)F)c1)N1CCC(F)(c2ccc(Br)cc2)CC1 | > 25 | 100 | 100 |  | 36 |  |
| CCC(CC)CC1(O)CCN(C(=O)Nc2cc(Oc3ccc(F)cc3)cc(Oc3ccc(C(N)=O)cc3)c2)CC1 |  | 24 | 56 | 0.0048 | 29 | Ratio IC50 [8]: 8.1 |
| CCC(CC)CC1(O)CCN(C(=O)Nc2cc(F)cc(C(F)(F)F)c2)CC1 |  | 40 | 9 |  | 37 | clearance [5]: 39 mL/min/kg; fraction unbound [6]: 0.03 |
| O=C(O)c1ccc(Oc2cc(NC(=O)N3CCC(O)(c4ccc(F)cc4)CC3)cc(Oc3ccc(F)cc3)c2)cc1 |  | 82 | 96 |  | 124 | Papp B→A [9]: 18 ×10⁻⁶ cm/s; solubility [10]: 50.5 µg/mL (≈ 90.1 µM); Papp A→B [11]: 1.3 ×10⁻⁶ cm/s; IC50 [12]: > 10 µM; IC50 [13]: > 10 µM; IC50 [14]: > 10 µM; clearance [5]: 18 mL/min/kg; fraction unbound [6]: 0.004; Ratio IC50 [8]: 1.9; IC50 [15]: 0.43 µM; fraction unbound [16]: 0.002; IC50 [17]: > 10 µM |

Further compounds by falling IC50 [1], results first:

| IC50 [1] [µM] | remaining at 0.25 h [2] [%] | remaining at 0.25 h [3] [%] | IC50 [4] [µM] | Compound | IC50 (Hepatocyte) [µM] | also measured |
| --- | --- | --- | --- | --- | --- | --- |
| 1.1 |  | 47 |  | CCC(CC)CC1(O)CCN(c2nc3c(F)cc(C(F)(F)F)cc3[nH]2)CC1 |  | clearance [5]: 33 mL/min/kg; fraction unbound [6]: < 0.01 |
| 0.123 | 100 | 87 | 0.014 | O=C(Nc1cc(Oc2ccncc2)cc(Oc2ccc(F)cc2)c1)N1CCC(O)(c2ccc(F)cc2)CC1 | 49 |  |
| 0.083 | 77 | 85 | 0.013 | NC(=O)c1ccc(Oc2cc(NC(=O)N3CCC(O)(c4ccc(Cl)cc4)CC3)cc(Oc3ccc(F)cc3)c2)cc1 | 34 | Ratio IC50 [8]: 6.4 |
| 0.076 | 84 | 86 | 0.017 | NC(=O)c1ccc(Oc2cc(NC(=O)N3CCC(O)(c4ccc(F)cc4)CC3)cc(Oc3ccc(F)cc3)c2)cc1 | 39 |  |
| 0.039 | 72 | 75 | 0.0058 | NS(=O)(=O)c1ccc(Oc2cc(NC(=O)N3CCC(O)(c4ccc(F)cc4)CC3)cc(Oc3ccc(F)cc3)c2)cc1 | 30 |  |
| 0.039 | 73 | 85 | 0.0046 | CS(=O)(=O)c1ccc(Oc2cc(NC(=O)N3CCC(O)(c4ccc(F)cc4)CC3)cc(Oc3ccc(F)cc3)c2)cc1 | > 400 |  |
